In patent US5232923A, “Catechol derivatives and pharmaceutical preparations containing same” (Mitsui Toatsu Chemicals, Incorporated, priority 1988, dated 1993):
Like-named read-outs stand apart in the source and are kept apart here.

How the values were obtained:
[1] = test system: production and secretion of NGF in mouse L-M cells; experiment: Promoting activity for the production and secretion of NGF in mouse L-M cells (ELISA of medium after 24 h); format: cell-based; settings: for fold induction at 200 µM: Mus musculus, 24 h, read-out: NGF Increase Ratio; for NGF Concentration: 24 hours, mean of four determinations
Method: Promoting activity for the production and secretion of NGF in mouse L-M cells
The medium was cultured for 3 days at a temperature of 37° C. […] The sample of the derivative tested is contained in the medium at a prescribed concentration as illustrated in the Tables. […] Data are expressed as fold increase in NGF content of the medium over that cultivated in the absence of the derivative to be tested. […] Data are presented as the mean of four determinations. The results are illustrated in Tables 1-5.

[2] = test system: production and secretion of NGF in mouse brain astroglial cells; experiment: Promoting activity for the production and secretion of NGF in mouse brain astroglial cells (ELISA of medium after 24 h); format: cell-based; settings: for fold induction at 400 µM / fold induction at 200 µM: Mus musculus, 24 h, read-out: NGF Increase Ratio; for NGF Concentration: 24 hours
Method: Promoting activity for the production and secretion of NGF in mouse brain astroglial cells
The experiment was performed by inducing astroglial cells from the mouse forebrain to a culture system according to the procedures of S. Furukawa et al. which is described in Biochem. Biophys. Res. Commun., 136, 57-63 (1986).
Forebrains of 8-days old mice were dissected out and cut into small pieces. The pieces were washed with calcium- and magnesium-free phosphate-bufferedsaline (hereinafter abbreviated as PBS), treated with 0.25% trypsin containing PBS at 37° C. for 30 minutes and triturated with a Pasteur pipet to give a suspension. Cells and cell clumps were recovered by centrifugation at 200 xg for 5 minutes. They were cultured in Dulbecco modified Eagle's medium (a product of Gibco Co. hereinafter abbreviated as DMEM) containing 10% fetal calf serum, 50 μ units/ml of penicillin, and 50 μg/ml of streptomycin, for 10 to 14 days with medium changes every 3 days. After completing confluency, the cells were dissociated by trypsin treatment and recultured in new culture flasks. This procedure was repeated further twice and more. The culture became a uniform cell cluster. The cell cluster for use in this invention can be stained not less than 97% in accordance with the PAP staining method (peroxidase/[…] staining method) using anti-human glial fibrillar acidic protein (GFAP) rabbit antiserum. The cells will hereinafter be referred to as astroglial cells.
Astroglial cells were innoculated in 24-well plates having a well surface area of 2.1 cm^2 (a product of Falcon Co.) at a cell density of about 3×10^4 cells/well and cultured for 3 days in DMEM medium supplemented with 10% of fetal calf serum. After completing confluency about ([…]), the medium was changed to DMEM medium (0.5 ml/well) supplemented with 0.5% of bovine serum albumin (fraction V) and cultured for 3 days. The culture was further continued with medium changes every 3 days. After cells were practically synchronized in the quiscent stage, the medium was changed to 0.5 ml of the same medium and containing a prescribed concentration of test sample as illustrated in the Tables. NGF in the medium after cultivating for 24 hours was determined by the ELISA as mentioned above. Data are expressed as fold increase in NGF content over that in the absence of the test sample. The lower detection limit of the ELISA is 0.25 pg/ml and the NGF content of control medium was normally 1-10 pg/0.5 ml/well. Data are presented as the mean of four determinations. The results are illustrated in Tables 1-5.

[3] = Table 1, L-M cells, sample concentration 0.2 mM, fold increase over control (1.00)
[4] = Table 1, L-M cells, sample concentration 0.2 mM, control 0.33
[5] = Table 3, sample concentration 0.4 mM, fold increase over control (1.00)
[6] = Table 3, sample concentration 0.4 mM, control 42.3
[7] = Table 3, sample concentration 0.2 mM, fold increase over control (1.00)
[8] = Table 3, sample concentration 0.2 mM, control 42.3
[9] = Table 2, L-M cells, sample concentration 0.2 mM, fold increase over control (1.00)
[10] = Table 2, L-M cells, sample concentration 0.2 mM, control 0.34
[11] = Table 4, sample concentration 0.2 mM, fold increase over control
[12] = Table 4, sample concentration 0.2 mM
[13] = Table 4, sample concentration 0.4 mM, fold increase over control
[14] = Table 4, sample concentration 0.4 mM

SMILES | NGF Concentration [1, 4] | fold induction at 400 µM [2, 5] | NGF Concentration [2, 6] | fold induction at 200 µM [1, 9] | NGF Concentration [1, 10] | other results
CC(=O)NCCc1ccc(O)c(O)c1 [Compound 1, N-Acetyl-3,4-dihydroxyphenethylamine] | 3.05 ng/well | 4.94 | 208.8 ng/well |  |  | fold induction at 200 µM [1, 3]: 9.24
CCCC(=O)NCCc1ccc(O)c(O)c1 [Compound 3] | 3.18 ng/well |  |  |  |  | fold induction at 200 µM [1, 3]: 9.64; fold induction at 200 µM [2, 7]: 3.66; NGF Concentration [2, 8]: 155.0 ng/well
CC(=O)NCCCc1ccc(O)c(O)c1 [Compound 7] | 2.81 ng/well | 4.46 | 188.5 ng/well |  |  | fold induction at 200 µM [1, 3]: 8.52
CC(=O)N(C)CCc1ccc(O)c(O)c1 [Compound 10] | 3.20 ng/well | 4.85 | 205.2 ng/well |  |  | fold induction at 200 µM [1, 3]: 9.7
CCCC(=O)N(C)CCc1ccc(O)c(O)c1 [Compound 12] | 3.02 ng/well | 4.89 | 206.7 ng/well |  |  | fold induction at 200 µM [1, 3]: 9.15
CC(=O)NCCc1ccc(OC(C)=O)c(OC(C)=O)c1 [Compound 13, N-Acetyl-3,4-diacetoxyphenethylamine] | 4.03 ng/well | 4.7 | 198.8 ng/well |  |  | fold induction at 200 µM [1, 3]: 12.2
CCCC(=O)NCCc1ccc(OC(C)=O)c(OC(C)=O)c1 [Compound 15] | 2.95 ng/well |  |  |  |  | fold induction at 200 µM [1, 3]: 8.94; fold induction at 200 µM [2, 7]: 3.74; NGF Concentration [2, 8]: 158.2 ng/well
CC(=O)NCCCc1ccc(OC(C)=O)c(OC(C)=O)c1 [Compound 17] | 2.85 ng/well |  |  |  |  | fold induction at 200 µM [1, 3]: 8.64; fold induction at 200 µM [2, 7]: 4.27; NGF Concentration [2, 8]: 180.6 ng/well
Br.CCNCCc1ccc(O)c(O)c1 [Compound 19, N-Ethyl-3,4-dihydroxyphenethylamine hydrobromide] | 3.50 ng/well | 4.17 | 176.3 ng/well |  |  | fold induction at 200 µM [1]: 10.6
CCCCNCCc1ccc(O)c(O)c1 [Compound 21] | 3.80 ng/well | 4.91 | 207.5 ng/well |  |  | fold induction at 200 µM [1]: 11.5
CNCCCc1ccc(O)c(O)c1 [Compound 26] | 2.84 ng/well | 4.17 | 176.5 ng/well |  |  | fold induction at 200 µM [1, 3]: 8.61
CCCCNCCCc1ccc(O)c(O)c1 [Compound 29] | 2.88 ng/well | 4.26 | 180.3 ng/well |  |  | fold induction at 200 µM [1, 3]: 8.73
CCCCN(C)CCc1ccc(O)c(O)c1 [Compound 32] |  | 4.82 | 203.8 ng/well |  |  | 
CCCCN(C)CCc1ccc(OC(C)=O)c(OC(C)=O)c1 [Compound 33] |  | 4.74 | 200.6 ng/well |  |  | 
CCOC(=O)CCc1ccc(O)c(O)c1 [Compound 35] |  |  |  | 5.82 | 1.98 ng/well | fold induction at 200 µM [2, 11]: 4.63; NGF Concentration [2, 12]: 200.1 ng/well
CCCCOC(=O)CCc1ccc(O)c(O)c1 [Compound 37] |  |  |  | 5.44 | 1.85 ng/well | fold induction at 200 µM [2, 11]: 4.83; NGF Concentration [2, 12]: 208.5 ng/well
CCOC(=O)Cc1ccc(O)c(O)c1 [Compound 39] |  |  |  | 5.24 | 1.78 ng/well | fold induction at 200 µM [2, 11]: 4.86; NGF Concentration [2, 12]: 210.1 ng/well

SMILES | NGF Concentration [1, 4] | fold induction at 400 µM [2, 5] | NGF Concentration [2, 6] | fold induction at 200 µM [1, 9] | NGF Concentration [1, 10] | other results
CCOC(=O)CCCc1ccc(O)c(O)c1 [Compound 43] |  |  |  | 5.53 | 1.88 ng/well | fold induction at 200 µM [2, 11]: 4.59; NGF Concentration [2, 12]: 198.5 ng/well
CCOC(=O)CCc1ccc(OC(C)=O)c(OC(C)=O)c1 [Compound 47, Ethyl 3,4-diacetoxyphenylpropionate] |  |  |  | 6.29 | 2.14 ng/well | fold induction at 400 µM [2, 13]: 5.11; NGF Concentration [2, 14]: 220.8 ng/well
CCCCOC(=O)CCc1ccc(OC(C)=O)c(OC(C)=O)c1 [Compound 49] |  |  |  | 6.29 | 2.14 ng/well | fold induction at 400 µM [2, 13]: 5.18; NGF Concentration [2, 14]: 223.7 ng/well
CCOC(=O)Cc1ccc(OC(C)=O)c(OC(C)=O)c1 [Compound 51] |  |  |  | 5.82 | 1.98 ng/well | fold induction at 400 µM [2, 13]: 4.5; NGF Concentration [2, 14]: 194.6 ng/well
CCOC(=O)CCCc1ccc(OC(C)=O)c(OC(C)=O)c1 [Compound 55] |  |  |  | 5.82 | 1.98 ng/well | fold induction at 400 µM [2, 13]: 4.39; NGF Concentration [2, 14]: 189.7 ng/well
NC(=O)CCc1ccc(O)c(O)c1 [Compound 58] |  |  |  | 5.53 | 1.88 ng/well | fold induction at 200 µM [2, 11]: 5.32; NGF Concentration [2, 12]: 230.0 ng/well
CCNC(=O)CCc1ccc(O)c(O)c1 [Compound 60] |  |  |  | 5.41 | 1.84 ng/well | fold induction at 200 µM [2, 11]: 6.95; NGF Concentration [2, 12]: 300.4 ng/well
CCNC(=O)Cc1ccc(O)c(O)c1 [Compound 64] |  |  |  | 5.32 | 1.81 ng/well | fold induction at 200 µM [2, 11]: 4.65; NGF Concentration [2, 12]: 200.8 ng/well
CCNC(=O)CCCc1ccc(O)c(O)c1 [Compound 69] |  |  |  | 5.53 | 1.88 ng/well | fold induction at 200 µM [2, 11]: 4.49; NGF Concentration [2, 12]: 194.1 ng/well
CN(C)C(=O)CCc1ccc(O)c(O)c1 [Compound 72] |  |  |  | 5.91 | 1.94 ng/well | fold induction at 200 µM [2, 11]: 6.5; NGF Concentration [2, 12]: 280.6 ng/well
CC(=O)Oc1ccc(CCC(N)=O)cc1OC(C)=O [Compound 73] |  |  |  | 5.68 | 2.01 ng/well | fold induction at 400 µM [2, 13]: 7.65; NGF Concentration [2, 14]: 330.6 ng/well
CCNC(=O)CCc1ccc(OC(C)=O)c(OC(C)=O)c1 [Compound 74] |  |  |  | 5.85 | 1.93 ng/well | fold induction at 400 µM [2, 13]: 6.53; NGF Concentration [2, 14]: 282.2 ng/well
CCNC(=O)Cc1ccc(OC(C)=O)c(OC(C)=O)c1 [Compound 76] |  |  |  | 5.47 | 1.88 ng/well | fold induction at 400 µM [2, 13]: 4.84; NGF Concentration [2, 14]: 209.1 ng/well
CCNC(=O)CCCc1ccc(OC(C)=O)c(OC(C)=O)c1 [Compound 79] |  |  |  | 5.35 | 1.82 ng/well | fold induction at 400 µM [2, 13]: 4.57; NGF Concentration [2, 14]: 197.3 ng/well
CC(=O)Oc1ccc(CCC(=O)N(C)C)cc1OC(C)=O [Compound 81] |  |  |  | 5.76 | 1.96 ng/well | fold induction at 400 µM [2, 13]: 6.33; NGF Concentration [2, 14]: 273.5 ng/well
CCCCNC(=O)CCc1ccc(O)c(O)c1 [Compound 82] |  |  |  |  |  | fold induction at 200 µM [2, 11]: 8.35; NGF Concentration [2, 12]: 360.9 ng/well
CCCCNC(=O)CCc1ccc(OC(C)=O)c(OC(C)=O)c1 [Compound 83] |  |  |  |  |  | fold induction at 400 µM [2, 13]: 8.82; NGF Concentration [2, 14]: 381.2 ng/well
